Peptide text beside a SMILES is read from it. * marks the point of attachment. X55 = O=C1C=CC(=O)N1c1ccccc1CCCCCCCCC(=O)*; X52 = O=C1C=CC(=O)N1c1ccccc1CCCCCCCC(=O)*; X63 = O=C1C=CC(=O)N1c1ccccc1CCCCCCC(=O)*; X49 = O=C1C=CC(=O)N1c1ccccc1CCCCCC(=O)*
How the values were obtained:
[1] = tested on: collagen-induced arthritis; test: Mouse collagen-induced arthritis (CIA) animal model; format: in vivo; details: DBA/1 mice CIA model, dose 4.0 mg/kg, subcutaneous from day 30, n=10; for Clinical score: highest score 16
[2] = tested on: IL-1β production by mouse peritoneal macrophages; test: IL-1β production by mouse peritoneal macrophages (ELISA); format: cell-based; details: for Inhibition rate: IL-1β production, vs model group; for IL-1β: mouse peritoneal macrophages, 48 h, ELISA
Experimental: Mice were injected intraperitoneally with 1 mL of broth culture medium (containing 6% of starch). Three days later, mice peritoneal macrophages were taken aseptically and washed twice with 1640 culture medium, and the cell concentration was adjusted to 2×10^6 cells/mL. The solutions were injected into 24-well culture plates at 1 mL per well. The cells were incubated in a cell incubator for 3 h and vibrated once every 30 min to make the cells fully adhere to the wall. Then, the cells were washed twice with a culture solution to remove non-adhered cells. PBS was added to the blank group, positive drug Dex was added to the positive group, no drug was added to the model group, and polypeptides X1-X90 with low, medium and high concentrations were added to the test groups; and the cells were continuously cultured for 48 h after administration, and then centrifuged at 1000 r/min for 15 min. The supernatant was collected as a sample to be tested for IL-1β activity.

[3] = tested on: choroidal neovascularization; test: Choroidal neovascularization in rats (laser photocoagulation, FFA); format: in vivo; details: BN rats
Experimental: 6-8 weeks male BN rats were fully anesthetized by intraperitoneal injection of 846 compound anesthetic with a concentration of 0.5 mL/kg. Compound tropicamide eye drops were used once 5 min before laser photocoagulation to fully dilate the pupils of both eyes. The animals were fixed and subjected to krypton laser photocoagulation equidistantly around an optic disc with the aid of a −53.00D corneal contact lens at a distance of 2PD from the optic disc. A total of 8 photocoagulation spots were obtained. The laser wavelength was 647.1 nm, the power was 350 mW, and the diameter and time of the photocoagulation spots were 50 μm and 0.05 s respectively. Fundus photography was performed immediately after photocoagulation. FFA, histopathology and transmission electron microscopy were performed on the days 3, 7, 14, 21 and 28 after photocoagulation respectively.
Through fundus photography and FFA examination, it was confirmed that the fluorescein leakage of the photocoagulation spot reached its peak on day 21 after photocoagulation. At the same time, histopathological examination was carried out.
Rats with successful modeling were randomly grouped, with 5 rats in each group. The groups were marked as a negative control group and X1-X90 treatment groups respectively. The rats were injected with normal saline and X1-X90 (the doses of X1-X90 were each 0.05 μM) in the vitreous chamber once a day for 1 week. FFA examination was carried out 3 days, 7 days, 14 days and 28 days after administration.

HUVECs = test: Transwell migration inhibition on HUVECs; format: cell-based, human; details: for Inhibition rate (%): HUVEC migration vs blank control; for Cell migration number (Mean ± SD): HUVECs, transwell, 24 h
[4] = tested on: retinal vascular endothelial nuclei; test: Neovascularization in a rat model of premature retinopathy; format: in vivo, rats; details: for Nuclei count (retinal vascular endothelial nuclei, average per section per eyeball): dose 0.05 μM in the vitreous chamber from day 7 of modeling for one week, counted on day 14, oxygen-induced neonatal rats
Experimental: Using a fluctuating oxygen-induced animal model, newborn rats born naturally on the same day (within 12 h) were randomly divide into three groups: an oxygen model group, an oxygen treatment group and a normal control group. The oxygen model was further divided into three sub-group model groups, and the sub-group model groups and the treatment group were all placed in a semi-closed oxygen chamber made of organic glass; medical oxygen was introduced into the chamber, and the concentration was adjusted to 80%±2% by an oxygen meter; nitrogen was introduced into the oxygen chamber after 24 h, and the oxygen concentration was adjusted to 10%±2% rapidly and maintained for 24 h. This was repeated to keep the oxygen concentration in the oxygen chamber alternating between 80% and 10% every 24 h, the oxygen concentration was maintained for 7 d, and then the rats were fed in the air. The oxygen concentration was monitored 8 times a day, and the ambient temperature in the chamber was controlled at 23° C.±2° C. Bedding was replaced, feed was added, and water and mother rats were replaced once. The normal control group was placed in the animal room feeding environment. […] The oxygen treatment group was divided into three subgroups. On day 7 of modeling, X1-[…], […]-[…] and […]-X90 were injected in the vitreous chamber respectively, and the oxygen model group and the control group were only given normal saline for one week. On day 14, after the rats were anesthetized by diethyl ether and killed, eyeballs were extracted and fixed in 40 g/L paraformaldehyde solution for 24 h. Gradient dehydration by alcohol was performed, and the eyeballs were processed by xylene to be transparent. After waxing, the eyeballs were sectioned continuously to a thickness of 4μm, and the periphery of the optic disc should be avoided as much as possible. The sections were parallel to the sagittal plane from cornea to the optic disc. Ten sections of each eyeball were randomly taken and stained with hematoxylin eosin, the number of vascular endothelial nuclei that broke through the inner limiting membrane of the retina (only the number of vascular endothelial nuclei closely related to the inner limiting membrane were counted) was counted, and statistics of the average number of cells per section per eyeball was performed. Results: In the control group, there were no vascular endothelial nuclei that broke through the inner limiting membrane of the retina and grew into vitreous body, or the vascular endothelial nuclei were occasionally found in only a few sections. In the model group, there were many vascular endothelial nuclei that broke through the inner limiting membrane of the retina, some appeared alone, and some appeared in clusters. At the same time, on some sections, these vascular endothelial nuclei were also found adjacent to deep retinal vessels, confirming that they originated from the retina rather than the vitreous body or other ocular tissues. In the treatment group, only a few vascular endothelial nuclei that broke through the inner limiting membrane of retina could be seen in the sections.

[5] = day 3 after administration, total light spot number was 297, 0.05 μM in the vitreous chamber once a day for 1 week
[6] = day 7 after administration, total light spot number was 186, 0.05 μM in the vitreous chamber once a day for 1 week
[7] = day 14 after administration, total light spot number was 137, 0.05 μM in the vitreous chamber once a day for 1 week
[8] = day 28 after administration, total light spot number was 69, 0.05 μM in the vitreous chamber once a day for 1 week

Row | Structure (SMILES) | Joint swelling degree (mm) [1] | Left and right paw swelling degree (mm) [1] | Clinical score [1] | Inhibition rate ([2]; dose 0.05 μM) | IL-1β ([2]; dose 0.05 μM) | Inhibition rate ([2]; dose 0.1 μM) | IL-1β ([2]; dose 0.1 μM) | Inhibition rate ([2]; dose 0.2 μM) | IL-1β ([2]; dose 0.2 μM) | CNV Incidence (%) [3, 5] | Leakage Light spot number [3, 5] | CNV Incidence (%) [3, 6] | Leakage Light spot number [3, 6] | CNV Incidence (%) [3, 7] | Leakage Light spot number [3, 7] | CNV Incidence (%) [3, 8] | Leakage Light spot number [3, 8] | Inhibition rate (%) (HUVECs; dose 0.05 μM) | Inhibition rate (%) (HUVECs; dose 0.1 μM) | Inhibition rate (%) (HUVECs; dose 0.2 μM) | other results
1 | C[C@H](NC(=O)CNC(=O)[C@H](CCCNC(=N)N)NC(=O)CCCCCc1ccccc1N1C(=O)C=CC1=O)C(=O)N[C@@H](CC(=O)O)C(=O)N[C@@H](CCCNC(=N)N)C(=O)N[C@@H](C)C(=O)NCC(=O)NCC(=O)NCC(=O)NCC(=O)N[C@@H](CCCNC(=N)N)C(=O)NCC(=O)N[C@@H](CC(=O)O)C(=O)O [X17] (X49-RGADRAGGGGRGD-OH) | 0.79 ± 0.12 mm | 0.78 ± 0.17 mm | 9.13 ± 1.31 | 16.02% | 790.35 ± 11.07 pg/mL | 43.57% | 531.11 ± 17.61 pg/mL | 43.90% | 528.00 ± 10.53 pg/mL | 54.88% | 163 | 48.39% | 90 | 42.34% | 58 | 40.58% | 28 | 48.96% | 54.89% | 57.52% | Cell migration number (Mean ± SD) (HUVECs; dose 0.05 μM): 547.07 ± 50.72; Cell migration number (Mean ± SD) (HUVECs; dose 0.1 μM): 483.55 ± 66.46; Cell migration number (Mean ± SD) (HUVECs; dose 0.2 μM): 455.35 ± 68.52; Nuclei count (retinal vascular endothelial nuclei, average per section per eyeball) [4]: 7.012 ± 1.321; retinal vascular endothelial nuclei count ([4]; dose 0.05 μm, vitreous injection): 7.012±1.321
2 | C[C@H](NC(=O)CNC(=O)[C@H](CCCNC(=N)N)NC(=O)CCCCCCc1ccccc1N1C(=O)C=CC1=O)C(=O)N[C@@H](CC(=O)O)C(=O)N[C@@H](CCCNC(=N)N)C(=O)N[C@@H](C)C(=O)NCC(=O)NCC(=O)NCC(=O)NCC(=O)N[C@@H](CCCNC(=N)N)C(=O)NCC(=O)N[C@@H](CC(=O)O)C(=O)O [X18] (X63-RGADRAGGGGRGD-OH) | 0.72 ± 0.11 mm | 0.79 ± 0.12 mm | 8.91 ± 1.29 | 23.36% | 721.31 ± 12.75 pg/mL | 23.86% | 716.58 ± 16.56 pg/mL | 27.40% | 683.26 ± 19.63 pg/mL | 53.87% | 160 | 46.24% | 86 | 45.99% | 63 | 44.93% | 31 | 40.73% | 41.02% | 44.55% | Cell migration number (Mean ± SD) (HUVECs; dose 0.05 μM): 635.26 ± 59.22; Cell migration number (Mean ± SD) (HUVECs; dose 0.1 μM): 632.13 ± 55.39; Cell migration number (Mean ± SD) (HUVECs; dose 0.2 μM): 594.30 ± 45.38; Nuclei count (retinal vascular endothelial nuclei, average per section per eyeball) [4]: 8.002 ± 3.606
3 | C[C@H](NC(=O)CNC(=O)[C@H](CCCNC(=N)N)NC(=O)CCCCCCCc1ccccc1N1C(=O)C=CC1=O)C(=O)N[C@@H](CC(=O)O)C(=O)N[C@@H](CCCNC(=N)N)C(=O)N[C@@H](C)C(=O)NCC(=O)NCC(=O)NCC(=O)NCC(=O)N[C@@H](CCCNC(=N)N)C(=O)NCC(=O)N[C@@H](CC(=O)O)C(=O)O [X19] (X52-RGADRAGGGGRGD-OH) | 0.84 ± 0.18 mm | 0.82 ± 0.14 mm | 8.72 ± 1.41 | 37.19% | 591.13 ± 10.54 pg/mL | 37.27% | 590.42 ± 10.34 pg/mL | 37.39% | 589.21 ± 12.08 pg/mL | 52.19% | 155 | 45.70% | 85 | 41.61% | 57 | 44.93% | 31 | 40.99% | 46.77% | 54.44% | Nuclei count (retinal vascular endothelial nuclei, average per section per eyeball) [4]: 7.236 ± 1.218
4 | C[C@H](NC(=O)CNC(=O)[C@H](CCCNC(=N)N)NC(=O)CCCCCCCCc1ccccc1N1C(=O)C=CC1=O)C(=O)N[C@@H](CC(=O)O)C(=O)N[C@@H](CCCNC(=N)N)C(=O)N[C@@H](C)C(=O)NCC(=O)NCC(=O)NCC(=O)NCC(=O)N[C@@H](CCCNC(=N)N)C(=O)NCC(=O)N[C@@H](CC(=O)O)C(=O)O [X20] (X55-RGADRAGGGGRGD-OH) | 0.82 ± 0.17 mm | 0.74 ± 0.14 mm | 9.07 ± 1.33 | 17.90% | 772.72 ± 18.78 pg/mL | 23.02% | 724.50 ± 12.58 pg/mL | 32.89% | 631.59 ± 19.52 pg/mL | 52.53% | 156 | 48.92% | 91 | 42.34% | 58 | 39.13% | 27 | 47.45% | 49.79% | 52.70% | Cell migration number (Mean ± SD) (HUVECs; dose 0.05 μM): 563.29 ± 41.22; Cell migration number (Mean ± SD) (HUVECs; dose 0.1 μM): 538.18 ± 64.13; Cell migration number (Mean ± SD) (HUVECs; dose 0.2 μM): 506.96 ± 57.65; Nuclei count (retinal vascular endothelial nuclei, average per section per eyeball) [4]: 9.374 ± 3.742

Reference: patent publication US20200270309A1, “MALEIMIDE GROUP-MODIFIED ANGIOGENESIS INHIBITOR HM-1 AND USE THEREOF” (NANJING ANJI BIOLOGICAL TECHNOLOGY CO., LTD, priority 2017, published 2020)
